Values after ≈ are worked out from the molar mass of the structure shown.
Columns and labels:
Type in all cases: functional
[1] = test system: Staphylococcus aureus; assay: Tested for the minimum inhibitory concentration against Staphylococcus aureus col
[2] = test system: Saccharomyces cerevisiae; assay: Tested for the minimum inhibitory concentration against Saccharomyces cerevisiae NCYC 81
[3] = test system: Staphylococcus aureus; assay: Tested for the minimum inhibitory concentration against Staphylococcus aureus 853E
[4] = test system: Enterococcus faecalis; assay: Tested for the minimum inhibitory concentration against […] faecalis 850E
[5] = test system: Escherichia coli; assay: Tested for the minimum inhibitory concentration against Escherichia coli 1852E PM
[6] = test system: Bacillus subtilis; assay: Tested for the minimum inhibitory concentration against Bacillus subtilis 6633
[7] = test system: Streptococcus pneumoniae; assay: Tested for the minimum inhibitory concentration against Streptococcus pneumoniae 3512
[8] = test system: Escherichia coli; assay: Tested for the minimum inhibitory concentration against Escherichia coli 1852E + 3 ug/mL PMBN

In the case of `COC1=CC(=O)N(C(=O)[C@H]2CSC(CNC(C)=O)=N2)C1`, the MIC [1] is reported as 32 mg/L (≈ 108 µM), the MIC [2] is reported as greater than 32 mg/L and the MIC [3] is reported as 32 mg/L (≈ 108 µM). For the same compound, the MIC [4] was 32 mg/L (≈ 108 µM), the MIC [5] was 16 mg/L (≈ 53.8 µM) and the MIC [6] was 16 mg/L (≈ 53.8 µM). It also gave an MIC [7] of 16 mg/L (≈ 53.8 µM) and an MIC [8] of 8 mg/L.

In the case of `COC1=CC(=O)N(C(=O)[C@H]2CSC(C(CO)NC(=O)c3csc(/C=N/O)n3)=N2)C1` (some centres undefined), the MIC [1] is reported as 16 mg/L (≈ 36.4 µM), the MIC [2] is reported as greater than 32 mg/L and the MIC [3] is reported as 16 mg/L (≈ 36.4 µM). The MIC [4] was 16 mg/L (≈ 36.4 µM), the MIC [5] was 1 mg/L (≈ 2.28 µM) and the MIC [6] was 16 mg/L (≈ 36.4 µM). It also gave an MIC [7] of 4 mg/L (≈ 9.1 µM) and an MIC [8] of 1 mg/L.

In the case of `CO/N=C(\C(=O)N[C@@H]1C(=O)N2C(C(=O)O)=C(CSc3nc(=O)c(O)nn3C)CS[C@H]12)c1csc(N)n1` [CEFTRIAXONE], the MIC [1] is reported as greater than 32 mg/L, the MIC [2] is reported as greater than 32 mg/L and the MIC [3] is reported as 4 mg/L (≈ 7.21 µM). The MIC [4] was 16 mg/L (≈ 28.9 µM), the MIC [5] was 0.06 mg/L (≈ 0.108 µM) and the MIC [6] was 0.25 mg/L (≈ 0.451 µM). The MIC [7] was 0.01 mg/L (≈ 0.018 µM) and the MIC [8] was 0.01 mg/L.

Source: ChEMBL document CHEMBL1135062, “Total synthesis and semi-synthetic approaches to analogues of antibacterial natural product althiomycin” (2002)
